# Like-named read-outs stand apart in the source and are kept apart here. Bridge positions count the residues as written; N and C are the ends. Square brackets hold non-standard residues; d marks the D form. Ends that are not written are not given here. Peptide text beside a SMILES is read from it. * marks the point of attachment. PEG12 = NCCOCCOCCOCCOCCOCCOCCOCCOCCOCCOCCOCCOCCC(=O)O; Bip = N[C@@H](Cc1ccc(-c2ccccc2)cc1)C(=O)O; Oic = O=C(O)[C@@H]1C[C@@H]2CCCC[C@@H]2N1; Dip = N[C@H](C(=O)O)C(c1ccccc1)c1ccccc1; 1Nal = N[C@@H](Cc1cccc2ccccc12)C(=O)O; Palmitoyl = CCCCCCCCCCCCCCCC(=O)*; β3hF = N[C@H](CC(=O)O)Cc1ccccc1; β3hP = O=C(O)C[C@@H]1CCCN1; Dap = NC[C@H](N)C(=O)O; StBu = CC(C)(C)S*; tBu = CC(C)(C)*
# Assays:
# C57/B16J mice = assay: Serum iron assay in mice after peptide administration; assay type: in vivo
# Experimental: Serum iron assay. The decrease in serum iron after peptide administration is the principal measure of hepcidin activity. Thus, as provided herein, the hepcidin activity of selected peptides of the present invention were assayed in vivo by measuring serum iron in test subjects. […] Two weeks before the experiment, the mice were switched to a diet containing about 2-4 ppm iron (Harlan Teklad, Indianapolis, Ind.) in order to suppress endogenous hepcidin. Peptide stocks were diluted to desired concentrations in sterile phosphate buffered saline (PBS) or other diluents as described next. […] Mice were sacrificed 4 hours later, blood was collected by cardiac puncture, and serum was separated using MICROTAINER tubes (Becton Dickinson, Franklin Lakes, N.J.). Serum iron was determined by using a colorimetric assay (Diagnostic Chemicals, Oxford, Conn.), which was modified for the microplate format so that 10 μl serum was used per measurement. The results were expressed as the percentage of decrease in serum iron when compared with the average value of serum iron levels in PBS-treated mice.
# [1] = biological target: T1, ferroportin fused to green fluorescent protein (ECR293/Fpn-GFP cells) (Mus musculus, UniProt Q9JHI9); assay: Flow cytometry of ferroportin-GFP internalization and degradation in ECR293/Fpn-GFP cells; assay type: cell-based; conditions: for DC50 / EC50: concentration eliciting 50% of maximal loss of fluorescence generated by reference Hep25, 24 hours
# T1 sequence (Q9JHI9 1-570): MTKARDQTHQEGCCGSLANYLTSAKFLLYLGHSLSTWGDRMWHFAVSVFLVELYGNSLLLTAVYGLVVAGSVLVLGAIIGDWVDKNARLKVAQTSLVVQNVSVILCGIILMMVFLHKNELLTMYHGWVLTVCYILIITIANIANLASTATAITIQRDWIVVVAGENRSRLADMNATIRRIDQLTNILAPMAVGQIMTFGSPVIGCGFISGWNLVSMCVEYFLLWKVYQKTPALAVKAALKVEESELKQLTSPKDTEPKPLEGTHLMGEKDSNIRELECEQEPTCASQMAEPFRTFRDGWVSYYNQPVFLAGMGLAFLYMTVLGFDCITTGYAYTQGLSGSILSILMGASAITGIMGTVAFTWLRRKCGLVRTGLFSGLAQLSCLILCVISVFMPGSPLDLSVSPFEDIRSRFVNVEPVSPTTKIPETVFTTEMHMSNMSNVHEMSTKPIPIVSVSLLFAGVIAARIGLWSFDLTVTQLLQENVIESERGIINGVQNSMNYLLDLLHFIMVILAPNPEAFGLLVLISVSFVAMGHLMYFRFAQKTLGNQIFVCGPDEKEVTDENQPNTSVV
# Experimental: In vitro activity may be measured by the dose-dependent loss of fluorescence of cells engineered to display ferroportin fused to green fluorescent protein as in Nemeth et al. (2006) Blood 107:328-33. […]
# FLOW CYTOMETRY. The activity of peptides of the present invention was measured by flow cytometry as previously described. See Nemeth et al. (2006) Blood 107:328-333, which is herein incorporated by reference. ECR293/Fpn-GFP, a cell line stably transfected with a ponasterone-inducible ferroportin construct tagged at the C-terminus with green fluorescent protein was used. See Nemeth et al. (2004) Science 306:2090-2093, which is herein incorporated by reference. Briefly, the cells were plated on poly-D-lysine coated plates in the presence of 20 μM FAC, with or without 10 μM ponasterone. After 24 hours, ponasterone was washed off, and cells were treated with peptides for 24 hours. Cells were then trypsinized and resuspended at 1×10^6 cells/ml, and the intensity of green fluorescence was analyzed by flow cytometry. […] Cells not induced with ponasterone to express Fpn-GFP were used to establish a gate to exclude background fluorescence. Cells induced with ponasterone, but not treated with any peptides, were used as the positive control. Each peptide was tested over the range of concentrations (0, 0.01, 0.03, 0.1, 0.3, 1, 3 and 10 μM). Each peptide treatment was repeated independently 3 to 6 times.
# [2] = i.p., 20 nmoles in liposomal solution, 4 hours
# [3] = read-out: EC50 (the source's name)
compound,measurement,setting,value
CCCCCCCCCCCCCCCC(=O)NC[C@H](NC(=O)CCCCCCCCCCCCCCC)C(=O)NCCOCCOCCOCCOCCOCCOCCOCCOCCOCCOCCOCCOCCC(=O)N[C@H](Cc1ccccc1)C(=O)N[C@@H](C(=O)N[C@H](CS)C(=O)N[C@@H](C(=O)N1CCC[C@@H]1C(=O)N[C@H](Cc1ccccc1)C(=O)N[C@H](Cc1c[nH]cn1)C(=O)N[C@@H](C(=O)N[C@H](CC(=O)O)C(N)=O)[C@H](C)O)[C@H](C)CC)[C@H](C)CC [Pr28] (Palmitoyl-[Dap](Palmitoyl)[PEG12][dF][dI][dC][dI][dP][dF][dH][dT][dD]-NH2),serum iron,C57/B16J mice; [2],lesser ability to decrease serum iron than Pr27
CC[C@H](C)[C@H](NC(=O)[C@H](CS)NC(=O)[C@@H](NC(=O)[C@@H]1CCCN1C(=O)[C@H](Cc1ccccc1)NC(=O)[C@H](Cc1c[nH]cn1)NC(=O)[C@@H](NC(=O)[C@@H](N)CC(=O)O)[C@@H](C)O)[C@@H](C)CC)C(=O)N[C@@H](Cc1ccccc1)C(N)=O [Hep9],serum iron,"C57/B16J mice; i.p., 50 μg per mouse in PBS, 4 hours, vs PBS",did not result in a serum iron decrease
CC[C@H](C)[C@H](NC(=O)[C@H](CS)NC(=O)[C@@H](NC(=O)[C@@H]1CCCN1C(=O)C[C@H](Cc1ccccc1)NC(=O)[C@H](Cc1c[nH]cn1)NC(=O)[C@@H](NC(=O)[C@@H](N)CC(=O)O)[C@@H](C)O)[C@@H](C)CC)C(=O)N[C@@H](Cc1ccccc1)C(N)=O [F4bhPhe],DC50,[1]; [3],700 nM
CC[C@H](C)[C@H](NC(=O)[C@@H]1CSSC[C@H](N)C(=O)N[C@@H](Cc2c[nH]cn2)C(=O)N[C@@H](Cc2ccccc2)C(=O)N2CCC[C@H]2C(=O)N[C@@H]([C@@H](C)CC)C(=O)N1)C(=O)N[C@@H](Cc1ccccc1)C(N)=O [Cyc-2] (H-CHFPICIF-NH2; disulfide 1-6),DC50,[1]; read-out: EC50,> 10000 nM
CCCCCCCCCCCCCCCC(=O)NCCOCCOCCOCCOCCOCCOCCOCCOCCOCCOCCOCCOCCC(=O)N[C@H](Cc1ccccc1)C(=O)N[C@@H](C(=O)N[C@H](CS)C(=O)N[C@@H](C(=O)N1CCC[C@@H]1C(=O)N[C@H](Cc1ccccc1)C(=O)N[C@H](Cc1c[nH]cn1)C(=O)N[C@@H](C(=O)N[C@H](CC(=O)O)C(N)=O)[C@H](C)O)[C@H](C)CC)[C@H](C)CC [Pr27],serum iron,"C57/B16J mice; i.p., 20 nmoles in PBS, 4 hours",serum iron decrease comparable to that caused by i.p. administration of 20 nmoles Hep25
same,serum iron,C57/B16J mice; [2],serum iron decrease similar to that caused by i.p. administration of 20 nmoles Hep25
same,serum iron,"C57/B16J mice; i.p., 200 nmoles in PBS, 4 hours",even greater decrease in serum iron concentrations
same,serum iron,"C57/B16J mice; oral by gavage, 200 nmoles in cremophore EL solution, vs PBS in same formulation",caused a decrease in serum iron in mice
CC[C@H](C)[C@H](NC(=O)[C@H](CS)NC(=O)[C@@H](NC(=O)[C@@H]1C[C@@H]2CCCC[C@@H]2N1C(=O)[C@@H](NC(=O)[C@H](Cc1c[nH]cn1)NC(=O)[C@@H](NC(=O)[C@@H](N)CC(=O)O)[C@@H](C)O)C(c1ccccc1)c1ccccc1)[C@@H](C)CC)C(=O)N[C@@H](Cc1ccccc1)C(N)=O [Pr44] (H-DTH[Dip][Oic]ICIF-NH2; N-terminus assumed),DC50,[1]; [3],30 nM
CC[C@H](C)[C@H](NC(=O)[C@H](CS)NC(=O)[C@@H](NC(=O)[C@@H]1CCCN1C(=O)[C@H](Cc1cccc2ccccc12)NC(=O)[C@H](Cc1c[nH]cn1)NC(=O)[C@@H](NC(=O)[C@@H](N)CC(=O)O)[C@@H](C)O)[C@@H](C)CC)C(=O)N[C@@H](Cc1ccccc1)C(N)=O [F4 1Nal] (H-DTH[1Nal]PICIF-NH2; N-terminus assumed),DC50,[1]; [3],110 nM
DTHFPISIF-NH2 [Hep9-C7S],DC50,[1]; [3],> 10000 nM
C[C@@H](O)[C@H](NC(=O)[C@@H](N)CC(=O)O)C(=O)N[C@@H](Cc1c[nH]cn1)C(=O)N[C@H](C(=O)N1CCC[C@H]1C(=O)N[C@@H](CCCNC(=N)N)C(=O)N[C@@H](CS)C(=O)N[C@@H](CCCNC(=N)N)C(=O)N[C@H](C(N)=O)C(c1ccccc1)c1ccccc1)C(c1ccccc1)c1ccccc1 [Pr42] (H-DTH[Dip]PRCR[Dip]-NH2; N-terminus assumed),EC50,[1],30 nM
DTHFPIAIF-NH2 [Hep9-C7A],DC50,[1]; [3],> 10000 nM
CC[C@H](C)[C@H](NC(=O)[C@H](CS)NC(=O)[C@@H](NC(=O)[C@@H]1CCCN1C(=O)[C@H](Cc1ccccc1)NC(=O)[C@H](Cc1c[nH]cn1)NC(=O)[C@@H](NC(=O)[C@@H](N)CC(=O)O)[C@@H](C)O)[C@@H](C)CC)C(=O)N[C@@H](Cc1ccccc1)C(=O)N1CCC[C@H]1CC(=O)N1CCC[C@H]1C(=O)N[C@@H](CCCCN)C(N)=O [Pr15],EC50,[1],150 nM
DTHAPICIF-NH2 [Hep9F4A],DC50,[1]; [3],> 3000 nM
F4Y: Hep25 with F4 substituted by tyrosine (DTHYPICIFCCGCCHRSKCGMCCKT),relative hepcidin activity of substitutions in Hep25,"[1]; Hep25 variants, FIG. 1, 2A, 2B",substantial loss of hepcidin activity
CC[C@H](C)[C@H](NC(=O)[C@H](CS)NC(=O)[C@@H](NC(=O)[C@@H]1CCCN1C(=O)[C@@H](NC(=O)[C@H](Cc1c[nH]cn1)NC(=O)[C@@H](NC(=O)[C@@H](N)CC(=O)O)[C@@H](C)O)C(c1ccccc1)c1ccccc1)[C@@H](C)CC)C(=O)N[C@@H](Cc1ccccc1)C(N)=O [F4Dpa] (H-DTH[Dip]PICIF-NH2; N-terminus assumed),EC50,[1],30 nM
CC[C@H](C)[C@H](NC(=O)[C@H](CS)NC(=O)[C@@H](NC(=O)[C@@H]1CCCN1C(=O)[C@H](Cc1ccccc1)NC(=O)[C@H](Cc1c[nH]cn1)NC(=O)[C@@H](NC(=O)[C@@H](N)CC(=O)O)[C@@H](C)O)[C@@H](C)CC)C(=O)N[C@@H](Cc1ccccc1)C(=O)N1CCC[C@@H]1C(=O)N1CCC[C@H]1CC(=O)N[C@@H](CCCCN)C(N)=O [Pr17],EC50,[1],300 nM
CC[C@H](C)[C@H](NC(=O)[C@H](CSSC(C)(C)C)NC(=O)[C@@H](NC(=O)[C@@H]1CCCN1C(=O)[C@H](C)NC(=O)[C@H](Cc1c[nH]cn1)NC(=O)[C@@H](NC(=O)[C@@H](N)CC(=O)O)[C@@H](C)O)[C@@H](C)CC)C(=O)N[C@@H](Cc1ccccc1)C(N)=O [Hep9C7-SStBut] (H-DTHAPIC(StBu)IF-NH2),DC50,[1]; [3],700 nM
DTHFPIC-NH2 [Hep7],DC50,[1]; [3],> 10000 nM
CC[C@H](C)[C@H](NC(=O)[C@H](CS)NC(=O)[C@@H](NC(=O)[C@@H]1CCCN1C(=O)[C@H](Cc1ccccc1)NC(=O)[C@H](Cc1c[nH]cn1)NC(=O)[C@@H](NC(=O)[C@@H](N)CC(=O)O)[C@@H](C)O)[C@@H](C)CC)C(=O)N[C@H](CC(=O)N1CCC[C@@H]1C(=O)N1CCC[C@H]1CC(=O)N[C@@H](CCCCN)C(N)=O)Cc1ccccc1 [Pr21] (H-DTHFPICI[β3hF][dP][β3hP]K-NH2),DC50,[1]; [3],500 nM
CC[C@H](C)[C@H](NC(=O)[C@H](CSC(C)(C)C)NC(=O)[C@@H](NC(=O)[C@@H]1CCCN1C(=O)[C@H](C)NC(=O)[C@H](Cc1c[nH]cn1)NC(=O)[C@@H](NC(=O)[C@@H](N)CC(=O)O)[C@@H](C)O)[C@@H](C)CC)C(=O)N[C@@H](Cc1ccccc1)C(N)=O [Hep9C7-tBut] (H-DTHAPIC(tBu)IF-NH2),DC50,[1]; [3],> 10000 nM
HFPICI-NH2 [Hep6],DC50,[1]; [3],1000 nM
CC[C@H](C)[C@H](NC(=O)[C@H](CS)NC(=O)[C@@H](NC(=O)[C@@H]1CCCN1C(=O)[C@H](Cc1ccc(-c2ccccc2)cc1)NC(=O)[C@H](Cc1c[nH]cn1)NC(=O)[C@@H](NC(=O)[C@@H](N)CC(=O)O)[C@@H](C)O)[C@@H](C)CC)C(=O)N[C@@H](Cc1ccccc1)C(N)=O [F4Bip] (H-DTH[Bip]PICIF-NH2; N-terminus assumed),DC50,[1]; [3],150 nM
CC[C@H](C)[C@H](NC(=O)[C@H](CS)NC(=O)[C@@H](NC(=O)[C@@H]1CCCN1C(=O)[C@H](Cc1ccccc1)NC(=O)[C@H](Cc1c[nH]cn1)NC(=O)[C@@H](NC(=O)[C@@H](N)CC(=O)O)[C@@H](C)O)[C@@H](C)CC)C(=O)N[C@H](CC(=O)N1CCC[C@@H]1C(=O)N1CCC[C@H]1CC(=O)N[C@@H](CCCNC(=N)N)C(N)=O)Cc1ccccc1 [Pr22] (H-DTHFPICI[β3hF][dP][β3hP]R-NH2),EC50,[1],600 nM
CC[C@H](C)[C@H](NC(=O)[C@@H]1CCCN1C(=O)[C@H](Cc1ccccc1)NC(=O)[C@H](Cc1c[nH]cn1)NC(=O)[C@@H](NC(=O)[C@@H](N)CC(=O)O)[C@@H](C)O)C(=O)N[C@@H](C(=O)N[C@H](C(=O)N[C@@H](Cc1ccccc1)C(N)=O)[C@@H](C)CC)C(C)(C)S [(D)Pen],DC50,[1]; [3],3000 nM

# — patent publication US20130203662A1, “Mini-Hepcidin Peptides and Methods of Using Thereof” (priority 2008, published 2013)
